Experimental data reported in patent publication US20240246940A1, “HETEROARYL DERIVATIVE COMPOUND AND USE THEREOF” (VORONOI INC., priority 2021, published 2024).

Legend:
[1] = system: SK-BR-3 cells (HER2 overexpressing cell line); experiment: SK-BR-3 cell proliferation inhibitory activity (CellTiter-Glo, 120 hours); assay type: cell-based; settings: Homo sapiens
Experimental: (§1) To evaluate the cell proliferation inhibitory activity of the compound according to the present invention on HER2 and EGFR kinases, the following method was performed using HER2 overexpressing cell lines (SK-BR-3, BT-474, and N-87) and EGFR expressing cell line (HaCaT).
(§2) McCOY'S 5A supplemented with 10% FBS was used for SK-BR-3 cells, RPMI-1640 medium supplemented with 20% FBS was used for BT-474 cancer cells, and RPMI-1640 medium supplemented with 10% FBS was used for N-87 cancer cells. DMEM supplemented with 10% FBS was used for HaCaT cells.
(§3) For SK-BR-3 cells, 5000 cells were aliquoted into each well of a white clear bottom 96 well plate (Corning) 48 hours before treatment with the compounds of Examples. For BT-474 cells, 5000 cells were aliquoted into each well of a white clear bottom 96 well plate (Corning) 48 hours before treatment with the compounds of Examples. For N-87 cells, 5000 cells were aliquoted into each well of a white clear bottom 96 well plate (Corning) 24 hours before treatment with the compounds of Examples. For HaCaT cells, 3000 cells were aliquoted into each well of a white clear bottom 96 well plate (Corning) 24 hours before treatment with the compounds of Examples. For SK-BR-3 cells and BT-474 cells, the compounds of Examples were diluted in dimethyl sulfoxide (three-fold dilution, a total of 11 concentrations) and injected each in an amount of 1 μl to a final concentration of 0.2 nM to 10 μM. For N-87 cells, the compounds of Examples were diluted in dimethyl sulfoxide (five-fold dilution, a total of 11 concentrations) and injected each in an amount of 0.5 μl to a final concentration of […] to 5 μM. For HaCaT cells, the compounds of Examples were diluted in dimethyl sulfoxide (three-fold dilution, a total of 11 concentrations) and injected each in an amount of 0.5 μl to a final concentration of 0.8 nM to 45 μM. For the measurement of living cells, the cells were stored at room temperature for 10 minutes using CellTiter-Glo cell viability reagent (Promega) after a certain period of time (SK-BR-3: 120 hours, BT-474: 120 hours, N-87: 72 hours, and HaCaT: 72 hours) post treatment with the compounds of Examples, and the luminescence intensity thereof was measured using a reader (SynergyNeo, Biotek). Each test was repeated three times.
(§4) The result values were calculated as a cell growth rate (%) compared to those of the control group. A graph was created using the GraphPad Prism version 5.0 program, and GI50 values were calculated.

[2] = system: HaCaT cells (EGFR expressing cell line); experiment: HaCaT cell proliferation inhibitory activity (CellTiter-Glo, 72 hours); assay type: cell-based; settings: Homo sapiens
Experimental: as §1, §2, §3, §4

SMILES	GI50 [1] [nM]	GI50 [2] [nM]
C=CC(=O)N1CC[C@@H](Oc2cc3c(Nc4cc(-c5ccco5)ccc4OC)ncnc3cc2OC)[C@H](F)C1 (relative stereo) [Example 179, 1-(trans-3-fluoro-4-((4-((5-(furan-2-yl)-2-methoxyphenyl)amino)-7-methoxy-quinazolin-6-yl)oxy)piperidin-1-yl)prop-2-en-1-one]	≤ 150	≤ 150
C=CC(=O)N1CC(Oc2cc3c(Nc4cc(-c5cccc(F)c5)ccc4OC)ncnc3cc2OC)C1 [Example 8, 1-(3-((4-((3′-fluoro-4-methoxy-[1,1′-biphenyl]-3-yl)amino)-7-methoxy-quinazolin-6-yl)oxy)azetidin-1-yl)prop-2-en-1-one]	≤ 150	≤ 150
C=CC(=O)N1CC(Oc2cc3c(Nc4cc(-c5cccc(C(F)(F)F)c5)ccc4OC)ncnc3cc2OC)C1 [Example 9, 1-(3-((7-methoxy-4-((4-methoxy-3′-(trifluoromethyl)-[1,1′-biphenyl]-3-yl)amino)quinazolin-6-yl)oxy)azetidin-1-yl)prop-2-en-1-one]	150 to 1000	150 to 1000
C=CC(=O)N1CC(Oc2cc3c(Nc4cc(-c5cc(F)ccc5F)ccc4OC)ncnc3cc2OC)C1 [Example 10, 1-(3-((4-((2′,5′-difluoro-4-methoxy-[1,1′-biphenyl]-3-yl)amino)-7-methoxy-quinazolin-6-yl)oxy)azetidin-1-yl)prop-2-en-1-one]	≤ 150	≤ 150
C=CC(=O)N1CC(Oc2cc3c(Nc4cc(-c5cc(F)cc(F)c5)ccc4OC)ncnc3cc2OC)C1 [Example 11, 1-(3-((4-((3′,5′-difluoro-4-methoxy-[1,1′-biphenyl]-3-yl)amino)-7-methoxy-quinazolin-6-yl)oxy)azetidin-1-yl)prop-2-en-1-one]	150 to 1000	≤ 150
C=CC(=O)N1CC(Oc2cc3c(Nc4cc(-c5cccc(C#N)c5)ccc4OC)ncnc3cc2OC)C1 [Example 12, 3′-((6-((1-acryloylazetidin-3-yl)oxy)-7-methoxy-quinazolin-4-yl)amino)-4′-methoxy-[1,1′-biphenyl]-3-carbonitrile]	≤ 150	≤ 150
C=CC(=O)N1CC(Oc2cc3c(Nc4cc(-c5ccc(F)cc5F)ccc4OC)ncnc3cc2OC)C1 [Example 13, 1-(3-((4-((2′,4′-difluoro-4-methoxy-[1,1′-biphenyl]-3-yl)amino)-7-methoxy-quinazolin-6-yl)oxy)azetidin-1-yl)prop-2-en-1-one]	≤ 150	≤ 150
C=CC(=O)N1CC(Oc2cc3c(Nc4cc(-c5ccc(F)c(C#N)c5)ccc4OC)ncnc3cc2OC)C1 [Example 14, 3′-((6-((1-acryloylazetidin-3-yl)oxy)-7-methoxy-quinazolin-4-yl)amino)-4-fluoro-4′-methoxy-[1,1′-biphenyl]-3-carbonitrile]	≤ 150	≤ 150
C=CC(=O)N1CC(Oc2cc3c(Nc4cc(-c5ccc(Cl)cc5F)ccc4OC)ncnc3cc2OC)C1 [Example 15, 1-(3-((4-((4′-chloro-2′-fluoro-4-methoxy-[1,1′-biphenyl]-3-yl)amino)-7-methoxy-quinazolin-6-yl)oxy)azetidin-1-yl)prop-2-en-1-one]	≤ 150	≤ 150
C=CC(=O)N1CC(Oc2cc3c(Nc4cc(-c5cccc(F)c5Cl)ccc4OC)ncnc3cc2OC)C1 [Example 18, 1-(3-((4-((2′-chloro-3′-fluoro-4-methoxy-[1,1′-biphenyl]-3-yl)amino)-7-methoxy-quinazolin-6-yl)oxy)azetidin-1-yl)prop-2-en-1-one]	≤ 150	≤ 150
C=CC(=O)N1CC(Oc2cc3c(Nc4cc(-c5cccc(F)c5F)ccc4OC)ncnc3cc2OC)C1 [Example 19, 1-(3-((4-((2′,3′-difluoro-4-methoxy-[1,1′-biphenyl]-3-yl)amino)-7-methoxy-quinazolin-6-yl)oxy)azetidin-1-yl) prop-2-en-1-one]	≤ 150	≤ 150
C=CC(=O)N1CC(Oc2cc3c(Nc4cc(-c5cccc(Cl)c5F)ccc4OC)ncnc3cc2OC)C1 [Example 20, 1-(3-((4-((3′-chloro-2′-fluoro-4-methoxy-[1,1′-biphenyl]-3-yl)amino)-7-methoxy-quinazolin-6-yl)oxy)azetidin-1-yl)prop-2-en-1-one]	≤ 150	≤ 150
C=CC(=O)N1CC(Oc2cc3c(Nc4cc(-c5cccc(F)c5C)ccc4OC)ncnc3cc2OC)C1 [Example 23, 1-(3-((4-((3′-fluoro-4-methoxy-2′-methyl-[1,1′-biphenyl]-3-yl)amino)-7-methoxy-quinazolin-6-yl)oxy)azetidin-1-yl)prop-2-en-1-one]	150 to 1000	≤ 150
C=CC(=O)N1CC(Oc2cc3c(Nc4cc(-c5ccc(F)cc5C)ccc4OC)ncnc3cc2OC)C1 [Example 25, 1-(3-((4-((4'-fluoro-4-methoxy-2′-methyl-[1,1′-biphenyl]-3-yl)amino)-7-methoxy-quinazolin-6-yl)oxy)azetidin-1-yl)prop-2-en-1-one]	≤ 150	≤ 150
C=CC(=O)N1CC(Oc2cc3c(Nc4cc(-c5ccc(C#N)cc5)ccc4OC)ncnc3cc2OC)C1 [Example 26, 3′-((6-((1-acryloylazetidin-3-yl)oxy)-7-methoxy-quinazolin-4-yl)amino)-4′-methoxy-[1,1′-biphenyl]-4-carbonitrile]	≤ 150	≤ 150
C=CC(=O)N1CC(Oc2cc3c(Nc4cc(-c5cnc(Cl)c(F)c5)ccc4OC)ncnc3cc2OC)C1 [Example 27, 1-(3-((4-((5-(6-chloro-5-fluoropyridin-3-yl)-2-methoxyphenyl)amino)-7-methoxy-quinazolin-6-yl)oxy)azetidin-1-yl)prop-2-en-1-one]	150 to 1000	150 to 1000
C=CC(=O)N1CC(Oc2cc3c(Nc4cc(-c5ccc(Cl)c(F)c5)ccc4OC)ncnc3cc2OC)C1 [Example 28, 1-(3-((4-((4′-chloro-3′-fluoro-4-methoxy-[1,1′-biphenyl]-3-yl)amino)-7-methoxy-quinazolin-6-yl)oxy)azetidin-1-yl)prop-2-en-1-one]	150 to 1000	150 to 1000
C=CC(=O)N1CCC(Oc2cc3c(Nc4cc(-c5ccccc5)ccc4OC)ncnc3cc2OC)C1 (centres unmarked) [Example 58, 1-(3-((7-methoxy-4-((4-methoxy-[1,1′-biphenyl]-3-yl)amino)quinazolin-6-yl)oxy)pyrrolidin-1-yl)prop-2-en-1-one]	150 to 1000	
C=CC(=O)N1CCC(Oc2cc3c(Nc4cc(-c5cccs5)ccc4OC)ncnc3cc2OC)C1 (centres unmarked) [Example 63, 1-(3-((7-methoxy-4-((2-methoxy-5-(thiophen-2-yl)phenyl)amino)quinazolin-6-yl)oxy)pyrrolidin-1-yl)prop-2-en-1-one]	150 to 1000	
C=CC(=O)N1CCC(Oc2cc3c(Nc4cc(-c5ccoc5)ccc4OC)ncnc3cc2OC)C1 (centres unmarked) [Example 64, 1-(3-((4-((5-(furan-3-yl)-2-methoxyphenyl)amino)-7-methoxy-quinazolin-6-yl)oxy)pyrrolidin-1-yl)prop-2-en-1-one]	150 to 1000	
C=CC(=O)N1CCC(Oc2cc3c(Nc4cc(-c5ccccc5)ccc4OC)ncnc3cc2OC)CC1 [Example 65, 1-(4-((7-methoxy-4-((4-methoxy-[1,1′-biphenyl]-3-yl)amino)quinazolin-6-yl)oxy)piperidin-1-yl)prop-2-en-1-one]	≤ 150	
C=CC(=O)N1CCC(Oc2cc3c(Nc4cc(-c5ccn6ncnc6c5)ccc4OC)ncnc3cc2OC)CC1 [Example 69, 1-(4-((4-((5-([1,2,4]triazolo[1,5-a]pyridin-7-yl)-2-methoxyphenyl)amino)-7-methoxy-quinazolin-6-yl)oxy)piperidin-1-yl)prop-2-en-1-one]	150 to 1000	
C=CC(=O)N1CCC(Oc2cc3c(Nc4cc(-c5ccoc5)ccc4OC)ncnc3cc2OC)CC1 [Example 81, 1-(4-((4-((5-(furan-3-yl)-2-methoxyphenyl)amino)-7-methoxy-quinazolin-6-yl)oxy)piperidin-1-yl)prop-2-en-1-one]	150 to 1000	
COc1ccc(-c2ccco2)cc1Nc1ncnc2cc(OC)c(OC3CCN(C(=O)/C=C/CN(C)C)CC3)cc12 [Example 120, (E)-4-(dimethylamino) 1-(4-((4-((5-(furan-2-yl)-2-methoxyphenyl)amino)-7-methoxy-quinazolin-6-yl)oxy)piperidin-1-yl)but-2-en-1-one]	150 to 1000	
